Like-named read-outs stand apart in the source and are kept apart here.

As a reminder, the EC50 is the concentration that produces a half-maximal response. Usually Ki stands for a measure of affinity in units of concentration, obtained from inhibition or displacement. What is called melting point is the temperature of the solid-liquid transition.

Data set [1] has as its target T1, recombinant PfdUTPase (Plasmodium falciparum, UniProt Q8II92).
T1 construct: made in house; host or cells: E. coli BL21 (DE3)
T1 sequence (Q8II92 1-173): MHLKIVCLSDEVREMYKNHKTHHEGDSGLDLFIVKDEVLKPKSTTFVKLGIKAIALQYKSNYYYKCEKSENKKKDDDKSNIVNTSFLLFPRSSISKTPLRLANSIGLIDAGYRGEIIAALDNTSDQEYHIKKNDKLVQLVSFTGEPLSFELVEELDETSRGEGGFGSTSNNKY
The note with it: previously reported; cited from earlier work.

For data set [2], the system named is P. falciparum K1, a chloroquine and pyrimethamine resistant strain. The note with it: mean of two independent assays, previously reported, read-out: In vitro assays EC50 P.f.; cited from earlier work.
Data set [3] concerns L6 cells (rat skeletal myoblast cells). The note with it: previously reported, cited from earlier work; for EC50: cytotoxicity on rat L6 myoblasts, mean of two independent assays, read-out: In vitro assays EC50 L6 cells.
The target in data set [4] is T2, human dUTPase (HsdUTPase) (Homo sapiens, UniProt P33316).
T2 construct: made in house; host or cells: E. coli BL21 (DE3)
T2 sequence (P33316 112-252 limits assumed): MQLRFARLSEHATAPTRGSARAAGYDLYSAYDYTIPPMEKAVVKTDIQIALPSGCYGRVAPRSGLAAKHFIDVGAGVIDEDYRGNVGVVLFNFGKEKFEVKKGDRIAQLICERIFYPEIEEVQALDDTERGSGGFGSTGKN
As to conditions: previously reported; read-out: Enzyme assay Ki HsdUTPase; cited from earlier work.

For data set [5], the target named is T1, recombinant PfdUTPase. The data set can be described thus: PfdUTPase enzyme inhibition assay (dUTP hydrolysis, Ki). As to conditions: for Ki: read-out: Enzyme assay, Ki P.fal. The class given is biochemical. The procedure:
(§1) Biological activity was evaluated by testing all compounds against the recombinant PfdUTPase and human dUTPase (HsdUTPase) in order to determine inhibition constants and selectivity.
Both recombinant P. falciparum and human dUTPases were expressed in E. coli BL21 (DE3) cells which had been transformed with the pET11Pfdut and pET3Hudut (kindly provided by P.O. Nyman, Lund University, Sweden) expression vectors, respectively. For dUTPase purification, the same procedure was used for both the human and the Plasmodium enzymes. Cell pellets from a 2.8 L IPTG-induced culture were resuspended in 70 mL of buffer A (20 mM MES, 50 mM NaCl, 1 mM DTT, pH 5.5) containing a protease inhibitor cocktail. The cells were lysed by sonication, and the cell extract was cleared by centrifugation at 14,000 rpm for 30 min. The supernatant was loaded onto a 40 mL phosphocellulose (Whatman P-11) column at 4 °C and eluted with a 50 mM to 1 M NaCl gradient in buffer A. Protein was further purified by gel filtration chromatography on a Superdex 200 HA 10/30 column at 4 °C. Pooled fractions were concentrated by centrifugation at 4 °C and desalted using a PD-10 column. The enzyme was stored in 10 mM bicine and 5 mM MgCl2, pH 8 at −80 °C.
(§2) Nucleotide hydrolysis was monitored by mixing enzyme and substrate with a rapid kinetic accessory (Hi-Tech Scientific) attached to a spectrophotometer (Cary 50) and connected to a computer for data acquisition and storage as described previously.[17] Protons, released through the hydrolysis of nucleotides, were neutralized by a pH indicator in weak buffered medium with similar pKa and monitored spectrophotometrically at the absorbance peak of the basic form of the indicator. The ratio between the indicator and the buffer concentration was 50:[…], and the absorbance changes were kept within 0.1 units. The indicator/buffer pair used was red cresol/bicine (pH 8, 573 nm). Assay mixes contained 30 nM PfdUTPase, 50 μM dUTP, 5 mM MgCl2, 1 mg/mL BSA, and 100 mM KCl. Vmax and KMapp were calculated by fitting the resulting data to the integrated Michaelis–Menten equation.

Data set [6] relates to P. falciparum K1, a chloroquine and pyrimethamine resistant strain. As to the kind of experiment: In vitro antiplasmodial activity, parasites cultured in erythrocytes. In kind it is cell-based. As to conditions: Plasmodium falciparum, Erythrocyte, mean of two independent assays, read-out: In vitro assays, EC50 P.fal. As for the experimental part: as §1
(§3) Activity against P. falciparum K1 strain and cytotoxicity assessment against L6 cells (rat skeletal myoblast cells) was determined as previously reported.[9]

The test system of data set [7] is L6 cells (rat skeletal myoblast cells). As to the kind of experiment: Cytotoxicity on rat L6 myoblasts. The class given is cell-based. The procedure:
as §3

The target in data set [8] is T2, human dUTPase (HsdUTPase). The data set can be described thus: Human dUTPase enzyme inhibition assay (dUTP hydrolysis, Ki). The class given is biochemical. As to conditions: recombinant human dUTPase; read-out: Enzyme assay, Ki H. sap. As for the experimental part:
as §1
Both recombinant P. falciparum and human dUTPases were expressed in E. coli BL21 (DE3) cells which had been transformed with the pET11Pfdut and pET3Hudut (kindly provided by P.O. Nyman, Lund University, Sweden) expression vectors, respectively. For dUTPase purification, the same procedure was used for both the human and the Plasmodium enzymes. Cell pellets from a 2.8 L IPTG-induced culture were resuspended in 70 mL of buffer A (20 mM MES, 50 mM NaCl, 1 mM DTT, pH 5.5) containing a protease inhibitor cocktail. […]
as §2, with “The indicator/buffer pair used was red cresol/bicine (pH 8, 573 nm). Assay mixes contained 30 nM PfdUTPase, 50 μM dUTP, 5 mM MgCl2, 1 mg/mL BSA, and 100 mM KCl. Vmax and KMapp were calculated by fitting the resulting data to the integrated Michaelis–Menten equation.” left out

The mark [9] stands for this setting: recombinant PfdUTPase, 50 μM dUTP, pH 8.
[10] abbreviates: cytotoxicity on rat L6 myoblasts, mean of two independent assays, read-out: In vitro assays, EC50 L6 cells (Tox).

`O=c1ccn(CCCOC(c2ccccc2)(c2ccccc2)c2ccccc2)c(=O)[nH]1` [Compound 1a]: the “Selectivity index (SI) for enzyme [KiHsdUTPase/KiPfdUTPase]” value at recombinant PfdUTPase [1] is recorded as 4. For the same compound, the EC50 is 7.5 µM in data set [2] and 34 µM in data set [3].

With `O=c1ccn(CCCCOC(c2ccccc2)(c2ccccc2)c2ccccc2)c(=O)[nH]1` [Compound 1b], the Ki in data set [4] is above 1000 µM. Besides, the EC50 in data set [2] is 4.9 µM; in data set [3] it was 42 µM.

`O=c1ccn(CCCCCOC(c2ccccc2)(c2ccccc2)c2ccccc2)c(=O)[nH]1` [Compound 1c]: in data set [4], the inhibition constant (Ki) is above 1000 µM. Moreover, the EC50 was 1.1 µM in data set [2] and 24 µM in [3].

`O=c1ccn(CCCCCCOC(c2ccccc2)(c2ccccc2)c2ccccc2)c(=O)[nH]1` [Compound 1d]: the results for the EC50 in [2] and in [3] were 2.3 µM and 44 µM, respectively.

Turning to `O=c1ccn(CCCNC(c2ccccc2)(c2ccccc2)c2ccccc2)c(=O)[nH]1` [Compound 1e], the figures for the EC50 in data set [2] and in data set [3] were 4.4 µM and 107 µM, respectively.

Regarding `O=c1ccn(CCCCNC(c2ccccc2)(c2ccccc2)c2ccccc2)c(=O)[nH]1` [Compound 1f], the “Selectivity index (SI) for enzyme [KiHsdUTPase/KiPfdUTPase]” value on recombinant PfdUTPase [1] is recorded as above 1111. The Ki in data set [4] is above 1000 µM. Besides, the figures for the EC50 in [2] and in data set [3] were 3.8 µM and 33 µM, respectively.

For the compound `O=c1ccn(CCCCCNC(c2ccccc2)(c2ccccc2)c2ccccc2)c(=O)[nH]1` [Compound 1g], in data set [4], the Ki was above 1000 µM. Besides, the EC50 in data set [2] is 2.2 µM; in [3] it was 39 µM.

Consider `O=c1ccn(CCCCCCNC(c2ccccc2)(c2ccccc2)c2ccccc2)c(=O)[nH]1` [Compound 1h], for which the “Selectivity index (SI) for enzyme [KiHsdUTPase/KiPfdUTPase]” value on recombinant PfdUTPase [1] is listed as above 556. Besides, the Ki in data set [4] was above 1000 µM. Further, the results for the half-maximal effective concentration (EC50) in data set [2] and in [3] were 1.1 µM and 40 µM, respectively.

Turning to `O=c1ccn([C@H]2C[C@H](O)[C@@H](COC(c3ccccc3)(c3ccccc3)c3ccccc3)O2)c(=O)[nH]1` [Compound 2a], the “Selectivity index (SI) for enzyme [KiHsdUTPase/KiPfdUTPase]” value on recombinant PfdUTPase [1] is 10. The EC50 in [2] is 6 µM. For the same compound, in [3], the EC50 was 192 µM and the “Cell selectivity index (SI) [EC50 L6/EC50 P. falciparum]” value is listed as 32.

Regarding `O=c1ccn([C@H]2C[C@H](O)[C@@H](CNC(c3ccccc3)(c3ccccc3)c3ccccc3)O2)c(=O)[nH]1` [Compound 2b], on recombinant PfdUTPase [1], the “Selectivity index (SI) for enzyme [KiHsdUTPase/KiPfdUTPase]” value was 232. For the same compound, the EC50 in [2] is 4.5 µM.

In the case of `O=c1ccn([C@H]2C[C@H](O)[C@@H](CNC(c3ccccc3)c3ccccc3)O2)c(=O)[nH]1` [Compound 2c], the EC50 in [3] is above 229 µM.

With `O=C(NCCCO)C(c1ccccc1)c1ccccc1` [Compound 3, N-(3-Hydroxypropyl)-2,2-diphenylacetamide], the Ki on recombinant PfdUTPase [5] (setting [9]) is above 100 µM. Further, the concentration for a half-maximal effect (EC50) worked out at 19 µM in [6] and 18 µM in data set [7] (setting [10]). Moreover, in [7], the “Cell selectivity index (SI) [EC50 L6/EC50 P. falciparum]” value amounted to 1.0.

Consider `O=C(NCCCO)C(c1ccccc1)(c1ccccc1)c1ccccc1` [Compound 4, N-(3-Hydroxypropyl)-2,2,2-triphenylacetamide], for which the Ki on recombinant PfdUTPase [5] (setting [9]) turned out to be 1000 µM. The EC50 turned out to be 9.8 µM in data set [6] and 19 µM in [7] (setting [10]). Besides, in [7], the “Cell selectivity index (SI) [EC50 L6/EC50 P. falciparum]” value was found to be 1.9.

With `O=C(c1ccccc1)n1c(=O)ccn(CCCNC(=O)C(c2ccccc2)(c2ccccc2)c2ccccc2)c1=O` [Compound 6, 3-Benzoyl-(1-(3-(triphenylacetylamino)propyl)uracil)], the Ki on recombinant PfdUTPase [5] (setting [9]) is above 100 µM. For the same compound, the concentration giving a half-maximal response (EC50) worked out at 6.7 µM in [6] and 9 µM in [7] (setting [10]). In addition, in [7], the “Cell selectivity index (SI) [EC50 L6/EC50 P. falciparum]” value came out at 1.4.

`O=C(NCCCn1ccc(=O)[nH]c1=O)C(c1ccccc1)c1ccccc1` [Compound 7, 1-(3-(Diphenylacetylamino)propyl)uracil] yielded a melting point of 145 to 147 °C. The “Selectivity index (SI) for enzyme [KiHsdUTPase/KiPfdUTPase]” value at recombinant PfdUTPase [5] was 26. Also, the Ki on recombinant PfdUTPase [5] (setting [9]) worked out at 11 µM. Further, the Ki in [8] came out at 286 µM. Further, in data set [6], the EC50 is 14 µM. Also, the “Cell selectivity index (SI) [EC50 L6/EC50 P. falciparum]” value in data set [7] came out at 1.3. Besides, the EC50 in [7] (setting [10]) worked out at 18 µM.

Compound `O=C(NCCCn1ccc(=O)[nH]c1=O)C(c1ccccc1)(c1ccccc1)c1ccccc1` [Compound 8, 1-(3-(Triphenylacetylamino)propyl)uracil] came in with a melting point of 154 to 156 °C. The Ki on recombinant PfdUTPase [5] (setting [9]) came to 6.3 µM.

As to `O=C(O)CCCn1ccc(=O)[nH]c1=O` [Compound 10, 1-(Carboxypropyl)uracil], the melting point is 174 to 176 °C. Also, on recombinant PfdUTPase [5] (setting [9]), the “Enzyme assay, Ki P.fal” value was “low affinity” and the Ki was above 100 µM. Also, the 50% effective concentration (EC50) in [6] is 25 µM. Moreover, the “Cell selectivity index (SI) [EC50 L6/EC50 P. falciparum]” value in [7] came to 0.7. Moreover, in data set [7] (setting [10]), the EC50 is 18 µM.

On to `O=C(CCCn1ccc(=O)[nH]c1=O)NC(c1ccccc1)c1ccccc1` [Compound 11, 1-[3-(Benzhydrylaminocarbonyl)propyl]uracil], for which the Ki on recombinant PfdUTPase [5] (setting [9]) came out at 0.7 µM.

On to `O=C(CCCn1ccc(=O)[nH]c1=O)NC(c1ccccc1)(c1ccccc1)c1ccccc1` [Compound 12, 1-[3-(Tritylaminocarbonyl)propyl]uracil], for which the Ki on recombinant PfdUTPase [5] (setting [9]) worked out at 0.2 µM.

Consider `O=C(NC(c1ccccc1)c1ccccc1)[C@H]1O[C@@H](n2ccc(=O)[nH]c2=O)C[C@@H]1O` [Compound 17, 2′,5′-Dideoxyuridine-5′-N-benzhydryl carboxamide], for which, on recombinant PfdUTPase [5], the “Selectivity index (SI) for enzyme [KiHsdUTPase/KiPfdUTPase]” value is above 12. Besides, the Ki was 8.3 µM at recombinant PfdUTPase [5] (setting [9]) and above 100 µM in [8]. The figures for the EC50 in data set [6] and in [7] (setting [10]) were above 5 µM and above 90 µM, respectively.

Take `COc1cc([C@@H]2c3cc4c(cc3[C@H](O)[C@H]3COC(=O)[C@H]23)OCO4)cc(OC)c1OC` [podophyllotoxin, reference compound]: the EC50 in [7] (Rattus norvegicus, L6, read-out: In vitro assays, EC50 L6 cells (Tox)) worked out at 0.012 µM.

Source of the values: PMC3776224, “Investigation of acyclic uridine amide and 5′-amido nucleoside analogues as potential inhibitors of the Plasmodium falciparum dUTPase^” (Bioorganic & Medicinal Chemistry, 2013).
